# Source: patent US20160250177A1, “MODIFIED DOCETAXEL LIPOSOME FORMULATIONS AND USES THEREOF” (MALLINCKRODT LLC, priority 2015, published 2016)
# Like-named read-outs stand apart in the source and are kept apart here.
# Tests used:
# [1] = human, in vivo; for AUC/Dose / CL / Cmax/Dose / Vss: iv
# clinical = settings: human, in vivo
structure (smiles),measurement,setting,value
CC(=O)O[C@@]12CO[C@@H]1C[C@H](O)[C@@]1(C)C(=O)[C@H](O)C3=C(C)[C@@H](OC(=O)[C@H](OC(=O)CN4CCN(C)CC4)[C@@H](NC(=O)OC(C)(C)C)c4ccccc4)C[C@@](O)([C@@H](OC(=O)c4ccccc4)[C@H]21)C3(C)C [TD-1],CL (mean),[1],0.025 L/h/m^2
same,Cmax and AUC with respect to dose,[1],remained linear with respect to dose
same,Vss (mean),[1],1.422 L/m^2
same,dose proportionality for Cmax and AUCinf,[1],demonstrate dose proportionality
same,AUC/Dose,[1]; 12 mg/m2,38106 m^2 · ng · h/ml/mg
same,CL,[1]; 12 mg/m2,0.0283 l/h/m^2
same,Cmax/Dose,[1]; 12 mg/m2,539.6 m^2 · ng/ml/mg
same,Vss,[1]; 12 mg/m2,1.46 l/m^2
same,AUC/Dose,[1]; 48 mg/m2,55469 m^2 · ng · h/ml/mg
same,CL,[1]; 48 mg/m2,0.0186 l/h/m^2
same,Cmax/Dose,[1]; 48 mg/m2,640.3 m^2 · ng/ml/mg
same,Vss,[1]; 48 mg/m2,1.40 l/m^2
same,AUC/Dose,[1]; 120 mg/m2,52326 m^2 · ng · h/ml/mg
same,CL,[1]; 120 mg/m2,0.0202 l/h/m^2
same,Cmax/Dose,[1]; 120 mg/m2,573.6 m^2 · ng/ml/mg
same,Vss,[1]; 120 mg/m2,0.090 l/m^2
same,AUC/Dose,[1]; 225 mg/m2,58571 m^2 · ng · h/ml/mg
same,CL,[1]; 225 mg/m2,0.0184 l/h/m^2
same,Cmax/Dose,[1]; 225 mg/m2,662.2 m^2 · ng/ml/mg
same,Vss,[1]; 225 mg/m2,1.08 l/m^2
same,AUC/Dose,[1]; 320 mg/m2,405478 m^2 · ng · h/ml/mg
same,CL,[1]; 320 mg/m2,0.0260 l/h/m^2
same,Cmax/Dose,[1]; 320 mg/m2,640.6 m^2 · ng/ml/mg
same,Vss,[1]; 320 mg/m2,1.58 l/m^2
same,half-life,clinical; average t1/2 for TD-1,~51 h
same,AUC(0-inf),"clinical; iv, 3 mg/m2",103 µg·h/mL
same,Cmax,"clinical; iv, 3 mg/m2",1.52 µg/mL
same,half-life,"clinical; iv, 3 mg/m2, t1/2",48.8 h
same,AUC(0-inf),"clinical; iv, 6 mg/m2",252 µg·h/mL
same,Cmax,"clinical; iv, 6 mg/m2",3.15 µg/mL
same,half-life,"clinical; iv, 6 mg/m2, t1/2",57.6 h
same,AUC(0-inf),"clinical; iv, 12 mg/m2",457 µg·h/mL
same,Cmax,"clinical; iv, 12 mg/m2",6.48 µg/mL
same,half-life,"clinical; iv, 12 mg/m2, t1/2",44 h
same,AUC(0-inf),"clinical; iv, 24 mg/m2",955 µg·h/mL
same,Cmax,"clinical; iv, 24 mg/m2",13.7 µg/mL
same,half-life,"clinical; iv, 24 mg/m2, t1/2",43.8 h
same,AUC(0-inf),"clinical; iv, 48 mg/m2",2660 µg·h/mL
same,Cmax,"clinical; iv, 48 mg/m2",30.7 µg/mL
same,half-life,"clinical; iv, 48 mg/m2, t1/2",59.3 h
same,AUC(0-inf),"clinical; iv, 80 mg/m2",2390 µg·h/mL
same,Cmax,"clinical; iv, 80 mg/m2",43.4 µg/mL
same,half-life,"clinical; iv, 80 mg/m2, t1/2",26.7 h
same,AUC(0-inf),"clinical; iv, 120 mg/m2",6280 µg·h/mL
same,Cmax,"clinical; iv, 120 mg/m2",68.8 µg/mL
same,half-life,"clinical; iv, 120 mg/m2, t1/2",48.3 h
same,AUC(0-inf),"clinical; iv, 160 mg/m2",9440 µg·h/mL
same,Cmax,"clinical; iv, 160 mg/m2",98.5 µg/mL
same,half-life,"clinical; iv, 160 mg/m2, t1/2",66.1 h
same,AUC(0-inf),"clinical; iv, 190 mg/m2",9810 µg·h/mL
same,Cmax,"clinical; iv, 190 mg/m2",143 µg/mL
same,half-life,"clinical; iv, 190 mg/m2, t1/2",53 h
same,AUC(0-inf),"clinical; iv, 225 mg/m2",13200 µg·h/mL
same,Cmax,"clinical; iv, 225 mg/m2",149 µg/mL
same,half-life,"clinical; iv, 225 mg/m2, t1/2",54.5 h
same,AUC(0-inf),"clinical; iv, 270 mg/m2",8370 µg·h/mL
same,Cmax,"clinical; iv, 270 mg/m2",150 µg/mL
same,half-life,"clinical; iv, 270 mg/m2, t1/2",35.6 h
same,AUC(0-inf),"clinical; iv, 320 mg/m2",13000 µg·h/mL
same,Cmax,"clinical; iv, 320 mg/m2",205 µg/mL
same,half-life,"clinical; iv, 320 mg/m2, t1/2",43.7 h
same,AUC(0-inf),"clinical; iv, 380 mg/m2",34100 µg·h/mL
same,Cmax,"clinical; iv, 380 mg/m2",310 µg/mL
same,half-life,"clinical; iv, 380 mg/m2, t1/2",84.4 h
same,half-life,clinical; t1/2 (mean),~50 h
